Source: patent US12234232B2, “Aromatic heterocyclic compound with kinase inhibitory activity” (SHANGHAI ENNOVABIO PHARMACEUTICALS CO., LTD., priority 2018, dated 2025)

Key:
[1] = molecular target: T1, JAK1 (Homo sapiens, UniProt P23458); experiment: Cellular JAK1 activity assay: IL-6-stimulated STAT3 phosphorylation in TF-1 cells; assay type: cell-based; parameters: endogenous in cells; host or cells: TF-1 cells (ATCC); conditions: IL-6 (30 ng/mL), pSTAT3, read-out: IC50 Cell JAK1
Experimental: (§1) In TF-1 cells, IL-6 stimulation leads to phosphorylation of STAT3 through JAK1, while EPO stimulants phosphorylation of STAT5 via JAK2.
(§2) TF-1 cells were obtained from American Type Culture Collection (ATCC). TF-1 cells were starved overnight (cell density was 100,000 cells/well at plating) in OptiMEM medium without phenol red containing 0.5% fetal bovine serum (FBS), 0.1 mM non-essential amino acids (NEAA), 1 mM sodium pyruvate at 37° C. The compound was serially diluted in DMSO, added to TF-1 cells and incubated at 37° C. for 20 minutes. The final concentration of DMSO was 0.2%. Then, human recombinant cytokine IL-6 (30 ng/mL) or EPO (10 U/mL) was added to the wells containing TF-1 cells. After the cell plate was incubated for 30 minutes, cells were lysed, and the phosphorylation of STAT3 (IL-6) or STAT5 (EPO) in the cell lysate (pSTAT3/total STAT3 Elisa Kit: CST #7300C/CST #7305C; pSTAT5 and total STAT5 Elisa Kit: Abcam #ab205715) was measured. The IC50 value was determined as the concentration of the compound required to inhibit STAT phosphorylation by 50% relative to the measured DMSO control.

[2] = molecular target: T1, JAK1; experiment: In vitro JAK1 kinase activity assay (HTRF kinEASE TK); assay type: biochemical; parameters: purchased Thermo Fisher; conditions: 1.1 μM ATP, 60 minutes, room temperature; read-out: IC50 JAK1 (enzyme activity assay)
Experimental: (§3) Recombinant human JAK1 protein was purchased from Thermo Fisher. JAK2 and JAK3 proteins were purchased from Carna Biosciences. HTRF kinEASE TK kit was purchased from Cisbio Bioassays. BioTek microplate reader Synergy Neo 2 was used to read the plate.
(§4) The test compounds were of 4-fold serial dilution, and the final concentration ranged from 10 μM to 0.04 nM in duplicates for each concentration. The concentration of DMSO in the reaction system was 1%.
The reaction included 0.5 ng/μl JAK 1 protein kinase, 1 μM TK Substrate-biotin peptide substrate, 1.1 μM ATP, 1× enzymatic buffer, 5 mM MgCl2, 1 mM MnCl2, 1 mM DTT, and 2.5 nM SEB. The detection plate was White Proxiplate 384-Plus plate (PerkinElmer), and the mixture (10 μl) was reacted at room temperature for 60 minutes.
(§5) Reaction detection: 10 μl of detection reagent was added to the reaction plate containing final concentration of 0.125 μM of SA-XL665 and 5 μl 1×TK-Antibody. The mixture was incubated overnight at room temperature. The plate was read using Synergy Neo 2.
(§6) Data analysis: 665/620 Ratio was converted into inhibition rate (%) through the following formula: inhibition rate (%)=(Ratiomax−Ratiotest)/(Ratiomax−Ratiomin)×100%. Ratiomax is a positive control without detection compound, Ratiomin is a negative control without detection compound and kinase, Ratiotest is the detection value of each concentration of different compounds. 4 parameter curve fitting was performed to measure the IC50 (nM) values. The details are shown in, Table 1.

[3] = molecular target: T2, JAK2 (Homo sapiens, UniProt O60674); experiment: Cellular JAK2 activity assay: EPO-stimulated STAT5 phosphorylation in TF-1 cells; assay type: cell-based; parameters: endogenous in cells; host or cells: TF-1 cells (ATCC); conditions: EPO (10 U/mL), pSTAT5, read-out: IC50 Cell JAK2
Experimental: as §1, §2

[4] = molecular target: T2, JAK2; experiment: In vitro JAK2 kinase activity assay (HTRF kinEASE TK); assay type: biochemical; parameters: purchased Carna Biosciences; conditions: 2.7 μM ATP, 25 minutes, room temperature; read-out: IC50 JAK2 (enzyme activity assay)
Experimental: as §3, §4
(§7) The reaction included 0.001 ng/μl JAK 2 protein kinase, 1 μM TK Substrate-biotin peptide substrate, 2.7 μM ATP, 1× enzymatic buffer, 5 mM MgCl2, and 1 mM DTT. The detection plate was White Proxiplate 384-Plus plate (PerkinElmer), and the mixture (10 μl) was reacted at room temperature for 25 minutes.
as §5, §6

[5] = molecular target: T3, JAK3 protein (Homo sapiens, UniProt P52333); experiment: In vitro JAK3 kinase activity assay (HTRF kinEASE TK); assay type: biochemical; conditions: 0.75 μM ATP, 25 minutes, room temperature; read-out: IC50 JAK3 (enzyme activity assay)
T3 construct: purchased Carna Biosciences
T3 sequence (P52333 1-1124): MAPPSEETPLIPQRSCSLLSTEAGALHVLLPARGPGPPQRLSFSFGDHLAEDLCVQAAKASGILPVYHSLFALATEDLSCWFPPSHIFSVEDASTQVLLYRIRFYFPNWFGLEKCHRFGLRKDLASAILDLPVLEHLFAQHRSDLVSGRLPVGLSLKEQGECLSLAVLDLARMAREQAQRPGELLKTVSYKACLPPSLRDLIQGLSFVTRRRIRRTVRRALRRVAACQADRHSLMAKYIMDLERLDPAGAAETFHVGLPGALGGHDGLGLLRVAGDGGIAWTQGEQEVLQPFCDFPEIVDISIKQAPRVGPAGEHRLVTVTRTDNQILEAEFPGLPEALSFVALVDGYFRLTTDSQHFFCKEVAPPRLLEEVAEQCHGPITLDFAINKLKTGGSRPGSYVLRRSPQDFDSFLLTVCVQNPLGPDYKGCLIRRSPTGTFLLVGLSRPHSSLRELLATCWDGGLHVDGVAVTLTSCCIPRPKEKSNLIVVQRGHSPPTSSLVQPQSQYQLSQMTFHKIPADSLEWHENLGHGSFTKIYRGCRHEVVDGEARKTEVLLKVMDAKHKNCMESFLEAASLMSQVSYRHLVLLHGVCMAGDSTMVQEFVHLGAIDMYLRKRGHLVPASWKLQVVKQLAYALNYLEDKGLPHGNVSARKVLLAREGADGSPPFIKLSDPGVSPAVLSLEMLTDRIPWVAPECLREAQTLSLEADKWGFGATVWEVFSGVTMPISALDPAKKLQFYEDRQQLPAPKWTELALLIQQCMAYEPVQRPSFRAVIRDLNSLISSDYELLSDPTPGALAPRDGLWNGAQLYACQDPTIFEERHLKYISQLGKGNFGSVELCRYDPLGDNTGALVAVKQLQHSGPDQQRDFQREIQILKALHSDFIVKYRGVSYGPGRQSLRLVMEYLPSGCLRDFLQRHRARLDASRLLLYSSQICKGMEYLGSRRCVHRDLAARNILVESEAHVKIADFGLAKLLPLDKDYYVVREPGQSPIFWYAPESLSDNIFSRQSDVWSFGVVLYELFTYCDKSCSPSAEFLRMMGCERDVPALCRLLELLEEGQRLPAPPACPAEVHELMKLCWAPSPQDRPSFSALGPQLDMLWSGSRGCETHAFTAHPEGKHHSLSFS
Experimental: as §3, §4
as §7, with “included […]” for “included 0.001 ng/μl”, “JAK 3” for “JAK 2”, “substrate, 0.75” for “substrate, 2.7”
as §5, §6

T2 sequence (O60674 whole entry): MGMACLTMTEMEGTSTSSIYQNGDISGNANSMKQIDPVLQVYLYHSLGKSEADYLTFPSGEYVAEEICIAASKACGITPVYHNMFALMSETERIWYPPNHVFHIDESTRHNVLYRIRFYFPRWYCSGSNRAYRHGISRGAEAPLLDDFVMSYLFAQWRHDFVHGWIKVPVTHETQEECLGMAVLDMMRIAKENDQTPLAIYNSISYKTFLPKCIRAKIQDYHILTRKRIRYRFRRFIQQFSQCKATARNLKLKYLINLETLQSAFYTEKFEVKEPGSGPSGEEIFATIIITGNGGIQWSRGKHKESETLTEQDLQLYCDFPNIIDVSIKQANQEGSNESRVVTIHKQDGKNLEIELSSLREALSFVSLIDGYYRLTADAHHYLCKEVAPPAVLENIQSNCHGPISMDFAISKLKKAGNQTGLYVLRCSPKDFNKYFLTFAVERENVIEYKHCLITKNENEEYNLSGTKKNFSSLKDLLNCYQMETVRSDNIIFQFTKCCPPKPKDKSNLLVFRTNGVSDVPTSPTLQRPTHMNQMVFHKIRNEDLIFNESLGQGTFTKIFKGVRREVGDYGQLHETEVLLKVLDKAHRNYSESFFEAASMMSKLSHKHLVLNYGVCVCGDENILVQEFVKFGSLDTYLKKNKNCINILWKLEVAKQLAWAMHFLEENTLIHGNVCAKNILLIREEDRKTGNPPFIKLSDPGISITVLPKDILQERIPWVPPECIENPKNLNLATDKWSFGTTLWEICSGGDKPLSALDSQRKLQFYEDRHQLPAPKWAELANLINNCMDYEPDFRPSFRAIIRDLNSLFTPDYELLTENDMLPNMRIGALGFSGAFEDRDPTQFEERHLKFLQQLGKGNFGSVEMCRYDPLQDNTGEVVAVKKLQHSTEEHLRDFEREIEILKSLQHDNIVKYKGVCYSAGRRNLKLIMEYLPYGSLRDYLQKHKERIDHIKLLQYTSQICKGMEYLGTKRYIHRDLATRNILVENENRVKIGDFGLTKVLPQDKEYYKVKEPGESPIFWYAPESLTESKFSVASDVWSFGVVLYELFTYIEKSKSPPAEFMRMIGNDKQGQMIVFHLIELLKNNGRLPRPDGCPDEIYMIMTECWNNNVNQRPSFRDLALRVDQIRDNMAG
T1 sequence (P23458 whole entry): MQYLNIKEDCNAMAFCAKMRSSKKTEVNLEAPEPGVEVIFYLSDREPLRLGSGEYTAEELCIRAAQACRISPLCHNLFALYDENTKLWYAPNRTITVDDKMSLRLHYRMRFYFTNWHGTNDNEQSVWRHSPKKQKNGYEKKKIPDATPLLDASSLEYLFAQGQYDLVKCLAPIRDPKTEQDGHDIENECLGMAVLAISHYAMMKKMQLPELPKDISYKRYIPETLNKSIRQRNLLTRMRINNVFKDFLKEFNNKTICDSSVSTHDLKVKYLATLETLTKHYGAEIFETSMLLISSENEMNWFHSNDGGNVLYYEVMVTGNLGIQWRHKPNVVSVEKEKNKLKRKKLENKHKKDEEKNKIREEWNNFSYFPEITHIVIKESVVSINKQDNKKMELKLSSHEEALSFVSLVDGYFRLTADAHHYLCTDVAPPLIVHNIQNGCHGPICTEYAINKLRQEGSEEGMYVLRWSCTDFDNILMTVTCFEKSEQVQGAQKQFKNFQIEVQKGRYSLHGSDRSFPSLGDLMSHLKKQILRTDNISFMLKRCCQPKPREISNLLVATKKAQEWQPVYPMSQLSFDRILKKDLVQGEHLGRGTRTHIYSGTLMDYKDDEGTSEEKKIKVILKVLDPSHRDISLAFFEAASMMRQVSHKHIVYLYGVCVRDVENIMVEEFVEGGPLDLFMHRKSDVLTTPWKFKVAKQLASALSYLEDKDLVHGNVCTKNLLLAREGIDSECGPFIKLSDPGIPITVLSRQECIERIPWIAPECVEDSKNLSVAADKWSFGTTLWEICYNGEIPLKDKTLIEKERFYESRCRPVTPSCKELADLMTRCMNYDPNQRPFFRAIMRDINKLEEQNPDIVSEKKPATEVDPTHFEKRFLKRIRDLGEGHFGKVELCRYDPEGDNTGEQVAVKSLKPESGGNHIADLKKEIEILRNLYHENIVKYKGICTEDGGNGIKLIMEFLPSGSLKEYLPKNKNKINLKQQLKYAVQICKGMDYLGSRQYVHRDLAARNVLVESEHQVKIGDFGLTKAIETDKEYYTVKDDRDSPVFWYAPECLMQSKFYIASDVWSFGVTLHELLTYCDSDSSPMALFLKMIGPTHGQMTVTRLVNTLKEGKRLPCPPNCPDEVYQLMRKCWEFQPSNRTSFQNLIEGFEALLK

| Structure (SMILES) | IC50 [1] | IC50 [2] | IC50 [3] | IC50 [4] | IC50 [5] |
| --- | --- | --- | --- | --- | --- |
| CCC(C(=O)Nc1nccc2c(-c3nc(Nc4cccc(S(C)(=O)=O)c4F)ncc3C)c[nH]c12)N1CC2(CCN(C)CC2)C1 (stereo not drawn) [Example 24, N-(3-(2-((2-Fluoro-3-(methylsulfonyl)phenyl)amino)-5-methylpyrimidin-4-yl)-1H-pyrrolo[2,3-c]pyridin-7-yl)-2-(7-methyl-2,7-diazaspiro[3.5]nonane-2-yl)butanamide] | 100 to 1000 nM | 5 to 50 nM | > 20000 nM | 100 to 10000 nM | 500 to 10000 nM |
| CCC(C(=O)Nc1nccc2c(-c3nc(Nc4cccc(NS(C)(=O)=O)c4F)ncc3C)c[nH]c12)N1CCN(C)CC1 (stereo not drawn) [Example 22, N-(3-(2-((2-Fluoro-3-(methylsulfonylamino)phenyl)amino)-5-methylpyrimidin-4-yl)-1H-pyrrolo[2,3-c]pyridin-7-yl)-2-(4-methylpiperazin-1-yl)butanamide] | 100 to 1000 nM | 5 to 50 nM | < 10000 nM | < 100 nM | 500 to 10000 nM |
| COc1nn(C)cc1Nc1nccc(-c2c[nH]c3c(NC(=O)[C@@H](C)N4CCN(C)CC4)nccc23)n1 [Example 1, (R)—N-(3-(2-((3-Methoxy-1-methyl-1H-pyrazol-4-yl)amino)pyrimidin-4-yl)-1H-pyrrolo[2,3-c]pyridin-7-yl)-2-(4-methylpiperazin-1-yl)propionamide] |  | > 50 nM |  | 100 to 10000 nM | 500 to 10000 nM |
| CCC(C(=O)Nc1nccc2c(-c3nc(Nc4cccc(S(=O)(=O)CC)c4F)ncc3C)c[nH]c12)N1CCN(C)CC1 (stereo not drawn) [Example 28] | 100 to 1000 nM | < 5 nM | 10000 to 20000 nM | < 100 nM | 500 to 10000 nM |
| CCC(C(=O)Nc1nccc2c(-c3nc(Nc4cccc(S(C)(=O)=O)c4F)ncc3F)c[nH]c12)N1CCN(C)CC1 (stereo not drawn) [Example 27, N-(3-(5-Fluoro-2-((2-fluoro-3-(methylsulfonyl)phenyl)amino)pyrimidin-4-yl)-1H-pyrrolo[2,3-c]pyridin-7-yl)-2-(4-methylpiperazin-1-yl) butanamide] | 100 to 1000 nM | < 5 nM | > 20000 nM | 100 to 10000 nM | 500 to 10000 nM |
| CCC(C(=O)Nc1nccc2c(-c3nc(Nc4cccc(S(C)(=O)=O)c4F)ncc3C)c[nH]c12)N1CCN(C)CC1 (stereo in doubt) [Example 20, (S)—N-(3-(2-((2-Fluoro-3-(methylsulfonyl)phenyl)amino)-5-methylpyrimidin-4-yl)-1H-pyrrolo[2,3-c]pyridin-7-yl)-2-(4-methylpiperazin-1-yl)butanamide] |  | 5 to 50 nM |  | 100 to 10000 nM | 500 to 10000 nM |
| CCC(C(=O)Nc1ncnc2c(-c3nc(Nc4cccc(S(C)(=O)=O)c4F)ncc3C)c[nH]c12)N1CCN(C)CC1 (stereo not drawn) [Example 29, N-(7-(2-((2-Fluoro-3-(methylsulfonyl)phenyl)amino)-5-methylpyrimidin-4-yl)-5H-pyrrolo[3,2-d]pyrimidin-4-yl)-2-(4-methylpiperazin-1-yl)butanamide] |  | > 50 nM |  | 100 to 10000 nM | 500 to 10000 nM |
| CC[C@@H](C(=O)Nc1nccc2c(-c3nc(Nc4cccc(S(C)(=O)=O)c4F)ncc3C)c[nH]c12)N1CC2CCC(C1)N2C [Example 26, (S)—N-(3-(2-((2-Fluoro-3-(methylsulfonyl)phenyl)amino)-5-methylpyrimidin-4-yl)-1H-pyrrolo[2,3-c]pyridin-7-yl)-2-(8-methyl-3,8-diazabicyclo[3.2.1]octane-3-yl)butanamide] |  | > 50 nM |  | 100 to 10000 nM | 500 to 10000 nM |
| COc1nn(C)cc1Nc1ncc(C)c(-c2c[nH]c3c(NC(=O)C(C)(C)N4CCN(C)CC4)nccc23)n1 [Example 11] |  | 5 to 50 nM |  | 100 to 10000 nM | 500 to 10000 nM |

Second part, the compound after the results:

| IC50 [1] | IC50 [2] | IC50 [3] | IC50 [4] | IC50 [5] | Structure (SMILES) |
| --- | --- | --- | --- | --- | --- |
| 100 to 1000 nM | 5 to 50 nM | < 10000 nM | < 100 nM | < 500 nM | COc1nn(C)cc1Nc1ncc(C)c(-c2c[nH]c3c(NC(=O)C(C(C)C)N4CCN(C)CC4)nccc23)n1 (stereo not drawn) [Example 6] |
| < 100 nM | 5 to 50 nM | < 10000 nM | < 100 nM | < 500 nM | CCC(C(=O)Nc1nccc2c(-c3nc(Nc4cn(C)nc4OC)ncc3C)c[nH]c12)N1CCN(C)CC1 (stereo not drawn) [Example 2, N-(3-(2-((3-Methoxy-1-methyl-1H-pyrazol-4-yl)amino)-5-methylpyrimidin-4-yl)-1H-pyrrolo[2,3-c]pyridin-7-yl)-2-(4-methylpiperazin-1-yl)butanamide] |
|  | < 5 nM |  | 100 to 10000 nM | < 500 nM | CCC(C(=O)Nc1nccc2c(-c3nc(Nc4cn(C)nc4OC)ncc3F)c[nH]c12)N1CCN(C)CC1 (stereo not drawn) [Example 17, N-(3-(5-Fluoro-2-((3-methoxy-1-methyl-1H-pyrazol-4-yl)amino)pyrimidin-4-yl)-1H-pyrrole[2,3-c]pyridin-7-yl)-2-(4-methylpiperazin-1-yl)butanamide] |
|  | < 5 nM |  | 100 to 10000 nM | < 500 nM | CCC(C(=O)Nc1nccc2c(-c3nc(Nc4cn(C)nc4OC)ncc3C)c[nH]c12)N1CCN(C2COC2)CC1 (stereo not drawn) [Example 18, N-(3-(2-((3-Methoxy-1-methyl-1H-pyrazol-4-yl)amino)-5-methylpyrimidin-4-yl)-1H-pyrrolo[2,3-c]pyridin-7-yl)-2-(4-(oxbutan-3-yl)piperazin-1-yl)butanamide] |
